From patent US7019108B2, “Method and composition for inhibition of angiogenesis and tumor growth using compounds based on a sequence within MMP-2” (priority 2001, dated 2006)
No end group written: not given here.

Experiments:
Type in all cases: in vivo
B16 melanoma tumor cells = assay: Chick embryo experimental metastasis model, B16 melanoma; conditions: 10 μg/embryo inoculated intravenously with the tumor cells, 12 day old chick embryos, 7 day incubation
Method: To examine the effects of Pexstatin on melanoma tumor metastasis in vivo, the chick embryo experimental metastasis model was utilized. Briefly, B16 melanoma tumor cells (2.5×10^4) were inoculated intravenously with Pexstatin (10 μg/embryo) or a control peptide in 12 day old chick embryos. In addition, a no treatment control was also added (NT). The Embryos were allowed to incubate for a total of 7 days. At the end of a 7 day incubation period the embryos were sacrificed and the lungs were removed for analysis. The number of melanoma lung lesions were counted for each lobe of the lung. Data bars represent the mean+the standard errors of the metastatic lung lesions from 5 to 10 embryos per condition.

[1] = tested on: CS-1 melanoma tumor cells; assay: CS-1 melanoma tumor growth on the CAM of chick embryos, systemic Pexstatin
Method: CS-1 melanoma tumor cells (5×10^6) were inoculated on the Chorioallantoic Membranes (CAMs) of 10 day old chick embryos. Twenty four hours latter the embryos received a single intravenous injection of 50 μg of Pexstatin peptide or PBS control. At the end of a 7 day incubation period the resulting tumors were resected and wet weights determined. Data bars represent the mean±the standard errors of the tumor weight from 5 to 10 embryos per condition.

[2] = tested on: M21 human melanoma tumor cells; assay: M21 human melanoma tumor growth in nude mice, systemic Pexstatin; conditions: female nude mice, daily injections of 100 μg
Method: M21 human melanoma tumor cells (2×10^6) were injected subcutaneously into female nude mice. Twenty four hours later the mice were treated daily with injections of 100 μg of Pexstatin MMP-2 peptide or PBS controls. Tumor sizes were monitored daily by caliper measurements. Data bars represent the mean tumor volume+the standard errors at each time point. Tumor volumes were estimated using the formula V=L2×W/2, V=volume, L=length, and W=width.

[3] = tested on: βFGF induced angiogenesis; assay: βFGF induced angiogenesis in the chick CAM assay, systemic Pexstatin; conditions: 3 day incubation
Method: A). Filter discs saturated with βFGF were placed on the CAMs of 10 day old chick embryos. Twenty four hours later, the embryos received a single intravenous injection with 50 μg of Pexstatin, control peptide or PBS. At the end of a 3 day incubation period the filter discs and surrounding CAM tissue were removed and angiogenesis was quantified by counting the number of blood vessel branch points within the area of the filter disc.
B). FIG. 4 illustrates the quantification of the angiogenesis experiment with Pexstatin. Data bars represent the mean+standard errors of 5 to 10 embryos per condition. The angiogenesis index is equal to the number of branch points from experimentally treated embryos minus the number of branch points from CAMs in the absence of βFGF.

CIFAGDKFWRC (cysteine pairing not given here) [Pexstatin, eleven amino acid peptide based on MMP-2 positions 582–590 flanked by cysteine residues]
inhibition of experimental B16 melanoma metastasis (lung lesions) as compared to controls (B16 melanoma tumor cells): approximately 80%
toxic side effects during the assay period ([1]; chick embryo, single i.v. 50 μg, 7 day incubation): no toxic side effects were noted
inhibition of CS1 melanoma tumor growth (tumor wet weight) as compared to controls ([1]; single intravenous injection of 50 μg, 24 h after inoculation, within 7 days, chick embryo CAM): approximately 60%
toxic side effects during the assay period [2]: no toxic side effects were noted
toxic side effects in the embryos during the assay period ([3]; chick embryo, single i.v. 50 μg): no toxic side effects were noted
inhibition of βFGF induced angiogenesis (angiogenesis index, branch points) as compared to controls ([3]; single intravenous injection of 50 μg, chick CAM): approximately 90%
